Test results: patent publication US5843936A, “Topical administration of azaspiranes to prevent or treat skin conditions associated with hyperproliferation of keratinocytes” (priority 1996, dated 1998)
Counter-ions that a name gives are not always drawn.

Legend:
[1] = tested on: Human foreskin keratinocytes; assay: Mitotic activity of epidermal keratinocytes: inhibition of 3H-TdR incorporation into DNA; type: cell-based
Description: The mitotic activity of epidermal keratinocytes is one of the most obvious histological features of the psoriatic lesion. Many cytotoxic drugs used to treat the disease are believed to function by direct inhibition of keratinocyte replication.
Human foreskin keratinocytes were cultured in KGM. When the dishes were approximately 50% covered by cells, SG was added to give final concentrations of 5×10^-5 to 5×10^-9 M. After 3 days, the cells were pulsed with ^3 H-TdR for 4 hours, and incorporation into DNA assayed by conventional means. The inhibition of incorporation in 2 experiments was as follows: […]

[2] = tested on: human skin microvascular endothelial cells; assay: Effect on morphology and growth of endothelial cell cultures; type: cell-based
Description: Skin endothelial cells in psoriasis are intimately involved in initiating the inflammatory response. Agents which affect both the binding of T lymphocytes and the hyperproliferation of endothelial cells would be expected to have a major effect in controlling the skin lesions.
In this study, human skin microvascular endothelial cells were isolated both from foreskins removed at circumcision and from skin obtained following a facial cosmetic correction. The endothelial cells were grown in a modified Iscove's medium, and while in the growth phase, the effect of varying concentrations of spirogermanium was studied on both the morphology and the growth of the endothelial cell cultures. Final concentrations of spirogermanium in the growth medium were 1,000, 500, 100, 50, 10, 1.0 and 0.125 μg/ml.

[3] = In vivo evaluation of efficacy in treating psoriasis; settings: moderate to severe psoriasis; documented (cited) procedures
Description: Compounds encompassed by structural formula (I) are evaluated in vivo for their efficacy in treating psoriasis. The methods of the following references are used in the evaluation: Berardesca et al., "Non-invasive Evaluation of Topical Calcipotriol versus Clobetasol in the Treatment of Psoriasis," Acta Derm Venereol (Stokh) 74:302-304 (1994); Elias et al., "A Controlled Trial of Topical Propylthiouracil in the Treatment of Patients with Psoriasis," J. Amer. Acad. Dermatol. 31(3):455-458; and Highton et al., "Calcipotriene Ointment 0.005% for Psoriasis: A Safety and Efficacy Study," J. Amer. Acad. Dermatol. 32(1):67-72 (1995).

[4] = hydrochloride salt, cited from earlier work

Structure (SMILES): C[CH2][Ge]1([CH2]C)[CH2]CC2(CCN(CCCN(C)C)C2)C[CH2]1 [SG]
- inhibition of DNA synthesis in keratinocytes (in words) [1]: very potent inhibitor of DNA synthesis in keratinocytes
- cell death ([2]; 0.125 μg/ml, after 1 week): cell death was observed after 1 week
- endothelial cell morphology ([2]; 10 μg/ml): vacuolization was observed before desquamation and ultimate cell death
- endothelial cell morphology ([2]; highest concentrations): immediately rounded up and detached from the dish surface
- efficacy in treating psoriasis [3]: effective for treating moderate to severe psoriasis

Structure (SMILES): C[CH2][Ge]1([CH2]C)[CH2]CC2(CCN(CCCN(C)C)C2)C[CH2]1 [spirogermanium HCl]
- solubility in 95% ethanol ([4]; 95% ethanol): freely soluble
- solubility in water ([4]; water): freely soluble
